System: RARγ
Experiment: chimeric receptor transactivation assay, RARγ
Format: cell-based
Settings: judged from Table 1 data, versus RARα and RARβ
In short: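 Chimeric receptor transactivation assay for agonist-like activity at each RAR subtype, per U.S. Pat. No. 5,455,265. Results as EC50; efficacy as percentage of maximum relative to standard TTNPB.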

SMILES	selectivity to the RARγ receptors
Cc1cc2c(cc1C(/C=C\c1ccc(C(=O)O)cc1)=NO)C(C)(C)CCC2(C)C [Compound 9b, Z4-[3-hydroxyimino-3-(3,5,5,8,8-pentamethyl-5,6,7,8-tetrahydro-naphthalen-2-yl)-propenyl]-benzoic acid]	less selective
COc1cc2c(cc1C(/C=C/c1ccc(C(=O)O)cc1)=NO)C(C)(C)CCC2(C)C [Compound 13a, E-4-[3-Hydroxyimino-3-(3-methoxy-5,5,8,8-tetramethyl-5,6,7,8-tetrahydro-naphthalen-2-yl)-propenyl]-benzoic acid]	less selective

From patent US7476673B2, “Disubstituted chalcone oximes as selective agonists of RARγ retinoid receptors” (Allergan, Inc., priority 2003, dated 2009)
